Test results as given in ChEMBL document CHEMBL1147491, “Complestatin synthetic studies; the effect of the amino acid configuration on peptide backbone conformation in the common western BCD macrocycle” (Bioorg Med Chem Lett, 2004).
pIC50: −log10 of the molar value.

Key:
Set-up in all cases: species or system Homo sapiens
[1] = Compound required to inhibit binding of CD4 to gp120 in the absence of bovine serum albumin(BSA)
[2] = Compound required to inhibit binding of CD4 to gp120 in the presence of bovine serum albumin(BSA)
[3] = Compound required to inhibit binding of CD4 to gp120 at 100 uM concentration; No inhibition

Row | SMILES | pIC50 [1] | pIC50 [2] | IC50 [3]
1 | CN1C(=O)[C@@H](c2cc(Cl)c(O)c(Cl)c2)NC(=O)[C@@H]2NC(=O)[C@@H](c3cc(Cl)c(O)c(Cl)c3)NC(=O)[C@H](NC(=O)C(=O)c3cc(Cl)c(O)c(Cl)c3)Cc3c[nH]c4c(cccc34)-c3cc2cc(c3O)Oc2ccc(cc2)C[C@H]1C(=O)N[C@@H](C(=O)O)c1ccc(O)cc1 [CHLOROPEPTIN] | 4.49 | 5.70 | –
2 | CN[C@H](CC(C)C)C(=O)N[C@H]1C(=O)N[C@@H](CC(N)=O)C(=O)N[C@H]2C(=O)N[C@H]3C(=O)N[C@H](C(=O)N[C@H](C(=O)O)c4cc(O)cc(O)c4-c4cc3ccc4O)[C@H](O)c3ccc(c(Cl)c3)Oc3cc2cc(c3O[C@@H]2O[C@H](CO)[C@@H](O)[C@H](O)[C@H]2O[C@H]2C[C@](C)(N)[C@H](O)[C@H](C)O2)Oc2ccc(cc2Cl)[C@H]1O [VANCOMYCIN] | – | – | No inhibition
